Experiments:
Assay type in all cases: biochemical
[1] = system: enzyme (protease, amylase, lipase); test: Overall effects of phosphonates on enzyme activity (Table 3)
Experimental: (§1) The enzyme activities in the detergents with different phosphonate levels were tested at 4000 ppm in 5 grains per gallon (GPG) water at 120° F. with various time points collected up to 4 hours, after a use solution was generated from the detergent composition. During the tests, the samples at different time points were collected and immediately frozen in an acetone/dry ice bath and stored in −80° C. before the activity of the enzyme was evaluated. For the use of such an assay, t=0 min was the reference point for 100% enzyme activity.
(§2) Assays of enzyme activity in formulations (% retention) were conducted to simulate a presoak condition in a beaker using the chemistry, temperature, and pH conditions relevant to manual warewash or presoak applications. Enzyme activity is an indicator of the stability of the enzyme in the detergent, specifically in an aqueous use solution within a sump (which is under conditions of high pH, temperature and dilution).
The relative enzyme activities in a use solution of the tested detergent compositions containing a different phosphonate at different concentrations over a period time are listed in Table 4A-Table 4E, Table 5A-Table 5E, and Table 6A-Table 6F.

[2] = system: amylase; test: Amylase activity retention in detergent use solution (4000 ppm, 5 GPG water; ethylidene substrate EPS, HEPES buffer pH 8.0); details: base formula
Experimental: as §1, §2
(§3) Enzyme activity under presoak or manual warewash conditions was traced quantitatively using a standard protease assay. Samples were prepared under bench top conditions, whereby the use solution from a detergent composition or detergent was obtained and maintained at a presoak or manual warewash temperature in a stirring water bath. After the time course for assessing enzyme stability is initiated, aliquots were taken at various time points and flash-frozen. A time=0 sample was prepared for each series by dissolving the detergent formulation at room temperature, mixing thoroughly, and flash freezing. Samples were thawed and diluted as necessary in an assay buffer usually for use in the protease assay. A glycine buffer at pH 9.0 is used here. The assay monitored the direct reaction of the protease on a small, commercially available peptidyl substrate, with liberation of the product providing correlation to the active enzyme content. The product was detected using a plate reader with an appreciable dynamic range (upper absorbance limit of the instrument >3.5). Enzyme activity levels were assessed relative to a calibration curve with average values for replicate tests used to map protease stability under presoak or manual warewash use conditions. Enzyme retention at each time point was calculated as the % enzyme activity relative to the time=0 sample.
(§4) The analysis by lipase and amylase assay was conducted similarly, except with a different substrate and buffers. For lipase activity, the substrate is p-nitrophenyl valerate, and for amylase, the substrate is an ethylidene substrate (EPS). The buffer used in lipase assay is TRIS (Tris(hydroxymethyl)aminomethane) buffer at pH 8.0, and in amylase assay HEPES (4-(2-hydroxyethyl)-1-piperazineethanesulfonic acid) buffer at pH 8.0.

[3] = system: lipase; test: Lipase activity retention in detergent use solution (4000 ppm, 5 GPG water; p-nitrophenyl valerate, TRIS buffer pH 8.0); details: base formula
Experimental: as §1, with “activities in the detergents with different phosphonate levels were tested at 4000 ppm in 5 grains per gallon (GPG) water at 120° F. with various time points” left out
as §2, §3, §4

[4] = phosphonate 0.3 wt-%, use solution at 120° F., time 0 min
[5] = phosphonate 0.3 wt-%, use solution at 120° F., time 5 min
[6] = phosphonate 0.3 wt-%, use solution at 120° F., time 10 min
[7] = phosphonate 0.3 wt-%, use solution at 120° F., time 20 min
[8] = phosphonate 0.3 wt-%, use solution at 120° F., time 40 min
[9] = phosphonate 0.3 wt-%, use solution at 120° F., time 60 min
[10] = phosphonate 0.3 wt-%, use solution at 120° F., time 90 min
[11] = phosphonate 0.3 wt-%, use solution at 120° F., time 120 min
[12] = phosphonate 0.3 wt-%, use solution at 120° F., time 150 min
[13] = phosphonate 0.3 wt-%, use solution at 120° F., time 180 min
[14] = phosphonate 0.3 wt-%, use solution at 120° F., time 210 min
[15] = phosphonate 0.3 wt-%, use solution at 120° F., time 240 min
[16] = phosphonate 0.6 wt-%, use solution at 120º F., time 0 min
[17] = phosphonate 0.6 wt-%, use solution at 120º F., time 5 min
[18] = phosphonate 0.6 wt-%, use solution at 120º F., time 10 min
[19] = phosphonate 0.6 wt-%, use solution at 120º F., time 20 min
[20] = phosphonate 0.6 wt-%, use solution at 120º F., time 40 min
[21] = phosphonate 0.6 wt-%, use solution at 120º F., time 60 min
[22] = phosphonate 0.6 wt-%, use solution at 120º F., time 90 min
[23] = phosphonate 0.6 wt-%, use solution at 120º F., time 120 min
[24] = phosphonate 0.6 wt-%, use solution at 120º F., time 150 min
[25] = phosphonate 0.6 wt-%, use solution at 120º F., time 180 min
[26] = phosphonate 0.6 wt-%, use solution at 120º F., time 210 min
[27] = phosphonate 0.6 wt-%, use solution at 120º F., time 240 min

## Monoethanolamine phosphonate [MEAP]
[1]
  Stability (effects on enzyme activity): Yes
[2]; [4]
  Relative Amylase Enzyme Activity: 100.00%
[2]; [5]
  Relative Amylase Enzyme Activity: 100.65%
[2]; [6]
  Relative Amylase Enzyme Activity: 102.68%
[2]; [7]
  Relative Amylase Enzyme Activity: 102.07%
[2]; [8]
  Relative Amylase Enzyme Activity: 91.36%
[2]; [9]
  Relative Amylase Enzyme Activity: 93.57%
[2]; [10]
  Relative Amylase Enzyme Activity: 94.85%
[2]; [11]
  Relative Amylase Enzyme Activity: 102.84%
[2]; [12]
  Relative Amylase Enzyme Activity: 93.01%
[2]; [13]
  Relative Amylase Enzyme Activity: 96.46%
[2]; [14]
  Relative Amylase Enzyme Activity: 100.65%
[2]; [15]
  Relative Amylase Enzyme Activity: 103.40%
[2]; [16]
  Relative Amylase Enzyme Activity: 100.00%
[2]; [17]
  Relative Amylase Enzyme Activity: 95.91%
[2]; [18]
  Relative Amylase Enzyme Activity: 99.98%
[2]; [19]
  Relative Amylase Enzyme Activity: 90.83%
[2]; [20]
  Relative Amylase Enzyme Activity: 91.75%
[2]; [21]
  Relative Amylase Enzyme Activity: 97.99%
[2]; [22]
  Relative Amylase Enzyme Activity: 99.08%
[2]; [23]
  Relative Amylase Enzyme Activity: 97.36%
[2]; [24]
  Relative Amylase Enzyme Activity: 101.28%
[2]; [25]
  Relative Amylase Enzyme Activity: 94.70%
[2]; [26]
  Relative Amylase Enzyme Activity: 99.20%
[2]; [27]
  Relative Amylase Enzyme Activity: 99.15%
[2]; phosphonate at 0.1% elemental phosphorus level, use solution at 120º F., time 0 min
  Relative Amylase Enzyme Activity: 100.00%
[2]; phosphonate at 0.1% elemental phosphorus level, use solution at 120º F., time 5 min
  Relative Amylase Enzyme Activity: 95.47%
[2]; phosphonate at 0.1% elemental phosphorus level, use solution at 120º F., time 10 min
  Relative Amylase Enzyme Activity: 112.93%
[2]; phosphonate at 0.1% elemental phosphorus level, use solution at 120º F., time 20 min
  Relative Amylase Enzyme Activity: 117.67%
[2]; phosphonate at 0.1% elemental phosphorus level, use solution at 120º F., time 40 min
  Relative Amylase Enzyme Activity: 122.41%
[2]; phosphonate at 0.1% elemental phosphorus level, use solution at 120º F., time 60 min
  Relative Amylase Enzyme Activity: 125.44%
[2]; phosphonate at 0.1% elemental phosphorus level, use solution at 120º F., time 90 min
  Relative Amylase Enzyme Activity: 127.99%
[2]; phosphonate at 0.1% elemental phosphorus level, use solution at 120º F., time 120 min
  Relative Amylase Enzyme Activity: 123.91%
[2]; phosphonate at 0.1% elemental phosphorus level, use solution at 120º F., time 150 min
  Relative Amylase Enzyme Activity: 120.88%
[2]; phosphonate at 0.1% elemental phosphorus level, use solution at 120º F., time 180 min
  Relative Amylase Enzyme Activity: 113.29%
[2]; phosphonate at 0.1% elemental phosphorus level, use solution at 120º F., time 210 min
  Relative Amylase Enzyme Activity: 112.78%
[2]; phosphonate at 0.1% elemental phosphorus level, use solution at 120º F., time 240 min
  Relative Amylase Enzyme Activity: 118.72%
[3]; [4]
  Relative Lipase Enzyme Activity: 100.00%
[3]; [5]
  Relative Lipase Enzyme Activity: 84.99%
[3]; [6]
  Relative Lipase Enzyme Activity: 78.55%
[3]; [7]
  Relative Lipase Enzyme Activity: 58.36%
[3]; [8]
  Relative Lipase Enzyme Activity: 39.07%
[3]; [9]
  Relative Lipase Enzyme Activity: 31.84%
[3]; [10]
  Relative Lipase Enzyme Activity: 26.97%
[3]; [11]
  Relative Lipase Enzyme Activity: 22.23%
[3]; [12]
  Relative Lipase Enzyme Activity: 20.19%
[3]; [13]
  Relative Lipase Enzyme Activity: 19.50%
[3]; [14]
  Relative Lipase Enzyme Activity: 16.46%
[3]; [15]
  Relative Lipase Enzyme Activity: 15.76%
[3]; [16]
  Relative Lipase Enzyme Activity: 100.00%
[3]; [17]
  Relative Lipase Enzyme Activity: 95.37%
[3]; [18]
  Relative Lipase Enzyme Activity: 90.69%
[3]; [19]
  Relative Lipase Enzyme Activity: 83.63%
[3]; [20]
  Relative Lipase Enzyme Activity: 72.89%
[3]; [21]
  Relative Lipase Enzyme Activity: 69.90%
[3]; [22]
  Relative Lipase Enzyme Activity: 65.92%
[3]; [23]
  Relative Lipase Enzyme Activity: 59.18%
[3]; [24]
  Relative Lipase Enzyme Activity: 53.85%
[3]; [25]
  Relative Lipase Enzyme Activity: 51.72%
[3]; [26]
  Relative Lipase Enzyme Activity: 47.03%
[3]; [27]
  Relative Lipase Enzyme Activity: 42.96%
[3]; phosphonate at 0.1% elemental phosphorus, at 120º F. or at room temperature (as titled), time 0 min
  Relative Lipase Enzyme Activity: 100.00%
[3]; phosphonate at 0.1% elemental phosphorus, at 120º F. or at room temperature (as titled), time 5 min
  Relative Lipase Enzyme Activity: 81.36%
[3]; phosphonate at 0.1% elemental phosphorus, at 120º F. or at room temperature (as titled), time 10 min
  Relative Lipase Enzyme Activity: 84.98%
[3]; phosphonate at 0.1% elemental phosphorus, at 120º F. or at room temperature (as titled), time 20 min
  Relative Lipase Enzyme Activity: 71.62%
[3]; phosphonate at 0.1% elemental phosphorus, at 120º F. or at room temperature (as titled), time 40 min
  Relative Lipase Enzyme Activity: 57.03%
[3]; phosphonate at 0.1% elemental phosphorus, at 120º F. or at room temperature (as titled), time 60 min
  Relative Lipase Enzyme Activity: 47.80%
[3]; phosphonate at 0.1% elemental phosphorus, at 120º F. or at room temperature (as titled), time 90 min
  Relative Lipase Enzyme Activity: 41.02%
[3]; phosphonate at 0.1% elemental phosphorus, at 120º F. or at room temperature (as titled), time 120 min
  Relative Lipase Enzyme Activity: 31.46%
[3]; phosphonate at 0.1% elemental phosphorus, at 120º F. or at room temperature (as titled), time 150 min
  Relative Lipase Enzyme Activity: 28.32%
[3]; phosphonate at 0.1% elemental phosphorus, at 120º F. or at room temperature (as titled), time 180 min
  Relative Lipase Enzyme Activity: 20.93%
[3]; phosphonate at 0.1% elemental phosphorus, at 120º F. or at room temperature (as titled), time 210 min
  Relative Lipase Enzyme Activity: 23.04%
[3]; phosphonate at 0.1% elemental phosphorus, at 120º F. or at room temperature (as titled), time 240 min
  Relative Lipase Enzyme Activity: 20.87%
